Laboratory results taken from ChEMBL document CHEMBL4270521, “Design, synthesis and biological evaluation of a series of novel 2-benzamide-4-(6-oxy-N-methyl-1-naphthamide)-pyridine derivatives as potent fibroblast growth factor receptor (FGFR) inhibitors” (Eur J Med Chem, 2018).

Assays:
[1] = molecular target: Fibroblast growth factor receptor 1 (Homo sapiens, UniProt P11362); assay: Inhibition of recombinant FGFR1 (unknown origin) using poly (Glu, Tyr) 4:1 as substrate after 60 mins by ELISA based spectrophotometric method
Sequence of Fibroblast growth factor receptor 1 (P11362 whole entry): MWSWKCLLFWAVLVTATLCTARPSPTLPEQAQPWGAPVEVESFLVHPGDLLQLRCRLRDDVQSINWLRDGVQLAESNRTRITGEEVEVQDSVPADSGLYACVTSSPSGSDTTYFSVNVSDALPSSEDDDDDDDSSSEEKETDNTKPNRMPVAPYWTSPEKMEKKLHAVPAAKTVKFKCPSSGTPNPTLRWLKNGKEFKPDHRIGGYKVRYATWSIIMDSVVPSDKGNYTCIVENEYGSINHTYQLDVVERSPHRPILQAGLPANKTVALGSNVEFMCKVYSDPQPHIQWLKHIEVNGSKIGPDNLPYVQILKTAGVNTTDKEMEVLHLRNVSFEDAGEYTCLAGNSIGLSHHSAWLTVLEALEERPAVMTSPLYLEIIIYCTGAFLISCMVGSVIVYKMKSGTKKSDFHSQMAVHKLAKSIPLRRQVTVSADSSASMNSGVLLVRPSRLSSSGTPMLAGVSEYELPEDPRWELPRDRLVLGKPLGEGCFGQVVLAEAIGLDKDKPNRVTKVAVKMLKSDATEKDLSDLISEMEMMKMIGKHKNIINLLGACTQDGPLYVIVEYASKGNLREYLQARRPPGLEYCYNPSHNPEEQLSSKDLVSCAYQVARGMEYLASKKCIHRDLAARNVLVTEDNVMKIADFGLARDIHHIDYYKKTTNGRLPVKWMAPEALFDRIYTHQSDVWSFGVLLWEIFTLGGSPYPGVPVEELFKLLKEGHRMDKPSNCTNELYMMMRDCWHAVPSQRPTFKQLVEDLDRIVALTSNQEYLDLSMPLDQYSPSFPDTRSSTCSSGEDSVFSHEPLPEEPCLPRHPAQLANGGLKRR

[2] = system: KG-1; assay: Antiproliferative activity against human KG1 cells expressing FGFR1 after 72 hrs; format: functional, cell-based; settings: KG-1, 72 h
[3] = Half life in Sprague-Dawley rat at 3 mg/kg, po administered via gavage by LC-MS/MS analysis; format: ADME, organism-based; settings: in vivo
[4] = Half life in Sprague-Dawley rat at 1 mg/kg, iv by LC-MS/MS analysis; format: ADME, organism-based; settings: in vivo
[5] = molecular target: Vascular endothelial growth factor receptor 2 (Homo sapiens, UniProt P35968); assay: Inhibition of recombinant VEGFR2 (unknown origin) using poly (Glu, Tyr) 4:1 as substrate after 60 mins by ELISA based spectrophotometric method
Sequence of Vascular endothelial growth factor receptor 2 (P35968 whole entry): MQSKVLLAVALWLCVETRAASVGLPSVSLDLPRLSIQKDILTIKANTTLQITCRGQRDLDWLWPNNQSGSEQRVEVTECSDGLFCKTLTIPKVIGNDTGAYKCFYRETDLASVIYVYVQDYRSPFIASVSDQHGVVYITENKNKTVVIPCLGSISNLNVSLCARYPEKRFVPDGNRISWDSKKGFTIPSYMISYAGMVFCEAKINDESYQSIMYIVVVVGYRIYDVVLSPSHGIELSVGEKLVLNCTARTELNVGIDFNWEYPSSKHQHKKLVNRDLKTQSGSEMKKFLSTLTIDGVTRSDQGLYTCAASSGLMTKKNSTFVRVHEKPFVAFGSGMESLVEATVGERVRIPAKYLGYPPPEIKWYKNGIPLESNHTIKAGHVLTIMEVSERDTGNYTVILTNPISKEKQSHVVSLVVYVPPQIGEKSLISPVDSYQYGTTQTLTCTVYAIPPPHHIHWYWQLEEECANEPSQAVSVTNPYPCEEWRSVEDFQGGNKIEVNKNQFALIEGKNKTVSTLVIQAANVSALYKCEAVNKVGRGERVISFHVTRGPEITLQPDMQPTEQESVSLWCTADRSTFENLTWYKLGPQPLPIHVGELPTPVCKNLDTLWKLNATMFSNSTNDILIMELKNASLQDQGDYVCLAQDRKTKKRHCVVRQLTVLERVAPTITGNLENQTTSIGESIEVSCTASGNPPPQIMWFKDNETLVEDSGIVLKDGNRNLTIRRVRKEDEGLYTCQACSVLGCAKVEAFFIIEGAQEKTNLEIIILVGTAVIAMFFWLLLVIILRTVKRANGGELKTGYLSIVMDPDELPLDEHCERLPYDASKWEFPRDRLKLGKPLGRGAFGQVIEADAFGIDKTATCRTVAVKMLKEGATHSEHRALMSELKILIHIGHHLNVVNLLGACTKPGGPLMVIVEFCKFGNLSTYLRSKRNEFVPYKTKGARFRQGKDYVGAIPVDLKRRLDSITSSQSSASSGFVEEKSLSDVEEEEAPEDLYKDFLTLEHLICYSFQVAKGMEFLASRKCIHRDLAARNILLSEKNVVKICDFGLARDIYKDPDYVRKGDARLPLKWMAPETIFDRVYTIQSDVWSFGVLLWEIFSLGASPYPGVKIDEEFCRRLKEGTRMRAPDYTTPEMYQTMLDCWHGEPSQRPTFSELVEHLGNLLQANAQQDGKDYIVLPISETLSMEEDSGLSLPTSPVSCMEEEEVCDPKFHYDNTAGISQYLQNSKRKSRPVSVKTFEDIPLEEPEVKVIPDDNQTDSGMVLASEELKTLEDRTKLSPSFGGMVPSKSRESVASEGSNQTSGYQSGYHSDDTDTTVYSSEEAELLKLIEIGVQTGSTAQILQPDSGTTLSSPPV

[6] = Volume of distribution at steady state in Sprague-Dawley rat at 1 mg/kg, iv by LC-MS/MS analysis; format: ADME, organism-based; settings: in vivo, read-out: Vdss
[7] = molecular target: T1, Fibroblast growth factor receptor 3 (Homo sapiens, UniProt P22607); assay: Inhibition of recombinant FGFR3 (unknown origin) using poly (Glu, Tyr) 4:1 as substrate after 60 mins by ELISA based spectrophotometric method
T1 sequence (P22607 whole entry): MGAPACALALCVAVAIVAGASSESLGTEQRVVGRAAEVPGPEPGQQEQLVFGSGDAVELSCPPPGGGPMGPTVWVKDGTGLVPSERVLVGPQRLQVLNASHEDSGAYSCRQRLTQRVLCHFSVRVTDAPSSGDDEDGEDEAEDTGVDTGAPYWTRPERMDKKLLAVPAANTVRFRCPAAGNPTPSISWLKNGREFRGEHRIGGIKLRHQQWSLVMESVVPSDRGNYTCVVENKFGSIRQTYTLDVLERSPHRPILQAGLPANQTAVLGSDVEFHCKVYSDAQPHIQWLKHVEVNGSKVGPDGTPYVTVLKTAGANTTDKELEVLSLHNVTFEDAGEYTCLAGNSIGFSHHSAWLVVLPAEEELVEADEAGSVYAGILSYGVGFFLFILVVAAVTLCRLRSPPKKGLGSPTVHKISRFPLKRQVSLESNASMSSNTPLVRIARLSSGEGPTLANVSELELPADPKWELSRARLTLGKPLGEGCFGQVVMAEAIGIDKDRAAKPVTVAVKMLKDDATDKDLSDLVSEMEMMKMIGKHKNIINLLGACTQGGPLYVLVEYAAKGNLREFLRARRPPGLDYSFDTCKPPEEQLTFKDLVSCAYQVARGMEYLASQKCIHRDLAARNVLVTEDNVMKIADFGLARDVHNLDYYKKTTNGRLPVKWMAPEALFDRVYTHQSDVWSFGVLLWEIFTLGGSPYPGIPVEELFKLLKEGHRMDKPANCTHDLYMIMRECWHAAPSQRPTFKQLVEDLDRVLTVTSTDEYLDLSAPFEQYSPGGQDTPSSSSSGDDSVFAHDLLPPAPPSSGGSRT

[8] = molecular target: Fibroblast growth factor receptor 2 (Homo sapiens, UniProt P21802); assay: Inhibition of recombinant FGFR2 (unknown origin) using poly (Glu, Tyr) 4:1 as substrate after 60 mins by ELISA based spectrophotometric method
Sequence of Fibroblast growth factor receptor 2 (P21802 whole entry): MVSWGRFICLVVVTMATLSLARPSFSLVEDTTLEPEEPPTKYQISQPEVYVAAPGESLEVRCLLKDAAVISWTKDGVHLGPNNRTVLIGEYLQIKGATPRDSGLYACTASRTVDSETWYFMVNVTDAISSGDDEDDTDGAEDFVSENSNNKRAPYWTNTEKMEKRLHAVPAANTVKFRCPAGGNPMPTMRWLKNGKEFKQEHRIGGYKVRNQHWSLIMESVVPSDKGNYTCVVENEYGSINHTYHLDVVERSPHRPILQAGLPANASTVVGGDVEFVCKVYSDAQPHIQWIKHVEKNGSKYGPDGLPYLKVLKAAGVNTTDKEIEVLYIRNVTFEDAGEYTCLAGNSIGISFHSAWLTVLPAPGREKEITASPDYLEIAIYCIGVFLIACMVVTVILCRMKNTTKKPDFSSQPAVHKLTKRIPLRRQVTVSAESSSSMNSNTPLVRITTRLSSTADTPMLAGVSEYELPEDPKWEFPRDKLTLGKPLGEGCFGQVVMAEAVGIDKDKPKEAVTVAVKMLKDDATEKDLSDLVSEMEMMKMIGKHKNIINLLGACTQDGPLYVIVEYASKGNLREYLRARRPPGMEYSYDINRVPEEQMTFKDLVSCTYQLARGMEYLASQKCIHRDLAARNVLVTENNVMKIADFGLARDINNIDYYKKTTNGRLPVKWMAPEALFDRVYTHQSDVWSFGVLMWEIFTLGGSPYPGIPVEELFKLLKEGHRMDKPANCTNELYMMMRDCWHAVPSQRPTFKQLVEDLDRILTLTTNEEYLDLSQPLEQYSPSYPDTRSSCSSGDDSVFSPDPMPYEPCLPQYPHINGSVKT

[9] = AUCinfinity in Sprague-Dawley rat at 3 mg/kg, po administered via gavage by LC-MS/MS analysis; format: ADME, organism-based; set-up: dose 3 mg/kg, time infinity, route oral; settings: in vivo
[10] = Oral bioavailability in Sprague-Dawley rat at 3 mg/kg administered via gavage by LC-MS/MS analysis; format: ADME, organism-based; settings: in vivo
[11] = AUCinfinity in Sprague-Dawley rat at 1 mg/kg, iv by LC-MS/MS analysis; format: ADME, organism-based; set-up: dose 1 mg/kg, route intravenous, time infinity; settings: in vivo
[12] = system: NCI-H1581; assay: Antiproliferative activity against human NCI-H1581 cells expressing FGFR1 after 72 hrs; format: functional, cell-based; settings: NCI-H1581, 72 h
[13] = Clearance in Sprague-Dawley rat at 1 mg/kg, iv by LC-MS/MS analysis; format: ADME, organism-based; settings: in vivo
[14] = AUClast in Sprague-Dawley rat at 3 mg/kg, po administered via gavage by LC-MS/MS analysis; format: ADME, organism-based; set-up: dose 3 mg/kg, time 0 - last, route oral; settings: in vivo
[15] = AUClast in Sprague-Dawley rat at 1 mg/kg, iv by LC-MS/MS analysis; format: ADME, organism-based; set-up: dose 1 mg/kg, time 0 - last, route intravenous; settings: in vivo
[16] = system: SNU-16; assay: Antiproliferative activity against human SNU16 cells expressing FGFR2 after 72 hrs; format: functional, cell-based; settings: SNU-16, 72 h
[17] = system: RT-112; assay: Antiproliferative activity against human RT112 cells expressing FGFR3 after 72 hrs; format: functional, cell-based; settings: RT-112, 72 h
[18] = system: BaF3; assay: Antiproliferative activity against mouse BAF3 cells expressing VEGFR2 after 72 hrs; format: functional, cell-based; settings: BaF3, 72 h
[19] = Antiproliferative activity against human UM-UC-14 cells expressing FGFR3 after 72 hrs; format: functional, cell-based; settings: UMUC14, 72 h
[20] = system: SNU-16; settings: Homo sapiens
Description: Antitumor activity against human SNU16 cells xenografted in nude mouse assessed as tumor growth inhibition administered ip qd for 21 consecutive days and measured twice per week

[21] = system: Mus musculus; assay: Toxicity in nude mouse xenografted with human SNU16 cells assessed as body weight loss at 10 to 50 mg/kg, ip qd administered for 21 consecutive days and measured twice per week; format: organism-based; settings: in vivo
[22] = system: SNU-16; assay: Antitumor activity against human SNU16 cells xenografted in nude mouse assessed as tumor growth inhibition at 50 mg/kg, ip qd administered for 21 consecutive days and measured twice per week relative to control; format: functional; settings: SNU-16, ip, read-out: TGI
[23] = Aqueous solubility of the compound; format: physicochemical; settings: buffer
[24] = system: SNU-16; assay: Antitumor activity against human SNU16 cells xenografted in nude mouse assessed as tumor growth inhibition at 10 mg/kg, ip qd administered for 21 consecutive days and measured twice per week relative to control; format: functional; settings: SNU-16, ip, read-out: TGI
[25] = molecular target: T1, Fibroblast growth factor receptor 3; assay: Inhibition of FGFR3 (unknown origin)

Structure (SMILES) | IC50 [1] | IC50 [2] | further results
CNC(=O)c1cccc2cc(Oc3ccnc(NC(=O)c4coc(N5CCN(C)CC5)n4)c3)ccc12 | 2.8 nM | – | –
CNC(=O)c1cccc2cc(Oc3ccnc(NC(=O)c4ccc(OCCN5CC(F)C5)cc4)c3)ccc12 | 3.6 nM | 5.1 nM | –
CNC(=O)c1cccc2cc(Oc3ccnc(NC(=O)c4ccc(OCCN5CCCC5)cc4)c3)ccc12 | 4.1 nM | < 4.1 nM | –
COC(=O)c1cccc2cc(Oc3ccnc(NC(=O)c4ccc(N5C[C@@H](C)N[C@@H](C)C5)cc4)c3)ccc12 | 4.6 nM | 159 nM | –
CNC(=O)c1cccc2cc(Oc3ccnc(NC(=O)c4csc(N5CCN(C)CC5)n4)c3)ccc12 | 7.6 nM | – | –
CNC(=O)c1cccc2cc(Oc3ccnc(NC(=O)c4ccc(N5CCN(C)CC5)cc4)c3)ccc12 [listing 1 of 2 here] | – | < 0.5 nM | half-life [3]: 1.85 h; half-life [4]: 0.897 h; IC50 [5]: 2.9 nM; Vd [6]: 16.7 L/kg; IC50 [7]: 10.6 nM; IC50 [8]: 4.5 nM; AUC(0-inf) [9]: 22.7 ng·h/mL; bioavailability [10]: 14.9%; AUC(0-inf) [11]: 49 ng·h/mL; IC50 [12]: 22.3 nM; clearance [13]: 346 mL/min/kg; AUC(0-t) [14]: 21.4 ng·h/mL; AUC(0-t) [15]: 47.9 ng·h/mL; IC50 [16]: < 0.5 nM; IC50 [17]: 52.6 nM; IC50 [18]: < 1.5 nM; IC50 [19]: 1.7 nM
CNC(=O)c1cccc2cc(Oc3ccnc(NC(=O)c4cnc(N5C[C@@H](C)N[C@@H](C)C5)nc4)c3)ccc12 | 10.2 nM | 30.3 nM | –
CC(Oc1ccc(NC(=O)c2ccc(N3C[C@@H](C)N[C@@H](C)C3)cc2)nc1)c1c(Cl)cncc1Cl (some centres undefined) | > 1000 nM | – | –
CNC(=O)c1cccc2cc(Oc3ccnc(NC(=O)c4ccc(C5CCN(CCO)CC5)cc4)c3)ccc12 | 1.2 nM | < 4.1 nM | –
COc1cc(OC)c(Cl)c(CCOc2ccnc(NC(=O)c3ccc(N4C[C@@H](C)N[C@@H](C)C4)cc3)c2)c1Cl | > 1000 nM | – | –
COc1cc(OC)c(F)c(COc2ccc(NC(=O)c3ccc(N4C[C@@H](C)N[C@@H](C)C4)cc3)nc2)c1F | 22.2 nM | 116 nM | –
CCNC(=O)Nc1ccc(Oc2ccnc(NC(=O)c3ccc(N4C[C@@H](C)N[C@@H](C)C4)cc3)c2)c(OC)c1 | 36.1 nM | 548 nM | –
CNC(=O)c1cccc2cc(Oc3ccnc(NC(=O)c4ccc(N5C[C@@H](C)N[C@@H](C)C5)cc4)c3)ccc12 | 2.1 nM | 14.9 nM | –
COc1cc(CCOc2ccnc(NC(=O)c3ccc(N4C[C@@H](C)N[C@@H](C)C4)cc3)c2)cc(OC)c1 | > 1000 nM | – | –
CCNC(=O)N1CCCc2cc(Oc3ccnc(NC(=O)c4ccc(N5C[C@@H](C)N[C@@H](C)C5)cc4)c3)ccc21 | 132 nM | 118 nM | –
CNC(=O)c1cccc2cc(Oc3ccnc(NC(=O)c4cnn(CCO)c4)c3)ccc12 | 23.5 nM | 278 nM | –
CNC(=O)c1cccc2cc(Oc3ccnc(NC(=O)c4ccc(N5CCN(CCO)CC5)cc4)c3)ccc12 | 1.9 nM | 5.8 nM | –

Structure (SMILES) | IC50 [1] | IC50 [2] | further results
CNC(=O)c1cccc2cc(Oc3ccnc(NC(=O)c4ccc(N5C[C@@H](C)N[C@@H](C)C5)cc4F)c3)ccc12 | > 1000 nM | – | –
CNC(=O)c1cccc2cc(Oc3ccnc(NC(=O)c4ccc(N5CCNC(C)C5)cc4)c3)ccc12 (centres undefined) | 2 nM | < 4.1 nM | –
COc1cc(CCc2cc(NC(=O)c3ccc(N4C[C@@H](C)N[C@@H](C)C4)cc3)n[nH]2)cc(OC)c1 [FEXAGRATINIB] | – | 1.9 to 8.7 nM | IC50 [12]: 40 nM; IC50 [16]: 6.2 nM; IC50 [17]: 83.8 nM; IC50 [18]: 222 nM; IC50 [19]: 26.9 nM
CCNC(=O)Nc1cccc2cc(Oc3ccnc(NC(=O)c4ccc(N5C[C@@H](C)N[C@@H](C)C5)cc4)c3)ccc12 | 67.5 nM | 504 nM | –
CNC(=O)c1cccc2cc(Oc3ccnc(NC(=O)c4ccc(N5C[C@@H](C)N[C@@H](C)C5)cc4OC)c3)ccc12 | 285 nM | – | –
CNC(=O)c1cccc2cc(Oc3ccnc(NC(=O)c4ccc(NCC5(O)CCOCC5)cc4)c3)ccc12 | 6.2 nM | < 4.1 nM | –
CNC(=O)c1cccc2cc(Oc3ccnc(NC(=O)c4ccc(N5CCN(C)CC5)cc4)c3)ccc12 [listing 2 of 2 here] | – | – | TGI [20]: Dose-dependent effect
CNC(=O)c1cccc2cc(Oc3ccnc(NC(=O)c4ccc(N5CCN(C)CC5)cc4)c3)ccc12.Cl.Cl | – | – | Activity [21]: Non-Toxic; inhibition in vivo at 50 mg/kg [22]: 81%; solubility [23]: Soluble; inhibition in vivo at 10 mg/kg [24]: 25%
CNC(=O)c1cccc2cc(Oc3ccnc(NC(=O)c4ccc(N5CC(C)OC(C)C5)cc4)c3)ccc12 (centres undefined) | 1.9 nM | 154 nM | –
CNC(=O)c1cccc2cc(Oc3ccnc(NC(=O)c4ccc(N5C[C@@H](C)N[C@@H](C)C5)cc4C)c3)ccc12 | 12.9 nM | > 1000 nM | –
CNC(=O)c1cccc2cc(Oc3ccnc(NC(=O)c4ccc(C5CCNCC5)cc4)c3)ccc12 | 1.6 nM | 72.2 nM | –
CNC(=O)c1cccc2cc(Oc3ccnc4cc(OCC5(N)CC5)c(OC)cc34)ccc12 [LUCITANIB] | – | – | IC50 [25]: 238 nM
CNC(=O)c1cccc2cc(Oc3ccnc(NC(=O)c4ccc(N5CCOCC5)cc4)c3)ccc12 | 1.2 nM | 9.3 nM | –
CNC(=O)c1cccc2cc(Oc3ccnc(NC(=O)c4ccc(OCC5(N)CC5)cc4)c3)ccc12 | 7.4 nM | 54.5 nM | –
CNC(=O)c1cccc2cc(Oc3ccnc(NC(=O)c4ccc(OCCN5CC(F)(F)C5)cc4)c3)ccc12 | 6.1 nM | < 4.1 nM | –
C=CC(=O)Nc1ccc(C(=O)Nc2cc(Oc3ccc4c(C(=O)NC)cccc4c3)ccn2)cc1 | 12.8 nM | 369 nM | –
